From patent publication US10730863B2, “Bridged bicyclic compounds as farnesoid X receptor modulators” (BRISTOL-MYERS SQUIBB COMPANY, priority 2017, dated 2020) come the findings set out here.

The target of this assay is FXR (Homo sapiens (Human), UniProt Q96RI1). Put plainly: FXR EC50 (FXR agonist activity reported with each example). The format is cell-based.
Chain of FXR (Q96RI1 262-486): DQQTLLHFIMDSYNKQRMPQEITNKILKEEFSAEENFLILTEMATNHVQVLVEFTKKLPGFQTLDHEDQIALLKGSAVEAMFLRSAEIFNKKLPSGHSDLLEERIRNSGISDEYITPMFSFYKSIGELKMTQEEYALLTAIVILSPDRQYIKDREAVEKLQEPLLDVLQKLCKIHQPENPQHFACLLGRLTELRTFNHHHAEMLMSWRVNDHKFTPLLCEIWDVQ
`CC(C)Oc1cc(-c2noc(C34CCC(OCc5c(-c6c(Cl)cncc6Cl)noc5C5CC5)(CC3)CC4)n2)cc(C(=O)O)n1` [Example 258, 4-(5-(4-((5-cyclopropyl-3-(3,5-dichloropyridin-4-yl)isoxazol-4-yl)methoxy)bicyclo[2.2.2]octan-1-yl)-1,2,4-oxadiazol-3-yl)-6-isopropoxypicolinic acid] showed an EC50 of 8 nM.

In turn, `COc1ccc(-c2nc(C34CCC(OCc5c(-c6c(Cl)cncc6Cl)noc5C5CC5)(CC3)CC4)c[nH]2)cc1C(=O)O` [Example 259, 5-(4-(4-((5-cyclopropyl-3-(3,5-dichloropyridin-4-yl)isoxazol-4-yl)methoxy)bicyclo[2.2.2]octan-1-yl)-1H-imidazol-2-yl)-2-methoxybenzoic acid] showed a concentration for a half-maximal effect (EC50) of 5500 nM.

In turn, `O=C(O)c1cc(-c2noc(C34CCC(OCc5c(-c6c(Cl)cncc6Cl)noc5C5CC5)(CC3)CC4)n2)cc(OC2CC2)n1` [Example 260, 6-cyclopropoxy-4-(5-(4-((5-cyclopropyl-3-(3,5-dichloropyridin-4-yl)isoxazol-4-yl)methoxy)bicyclo[2.2.2]octan-1-yl)-1,2,4-oxadiazol-3-yl)picolinic acid] registered a half-maximal effective concentration (EC50) of 39 nM.

For the compound `O=C(O)c1cc(-c2noc(C34CCC(OCc5c(-c6c(Cl)cncc6Cl)noc5C5CC5)(CC3)CC4)n2)cc(OC2CCC2)n1` [Example 261, 6-cyclobutoxy-4-(5-(4-((5-cyclopropyl-3-(3,5-dichloropyridin-4-yl)isoxazol-4-yl)methoxy)bicyclo[2.2.2]octan-1-yl)-1,2,4-oxadiazol-3-yl)picolinic acid], the EC50 came to 36 nM.

`CN(C)c1cc(-c2noc(C34CCC(OCc5c(-c6c(Cl)cncc6Cl)noc5C5CC5)(CC3)CC4)n2)cc(C(=O)O)n1` [Example 262, 4-(5-(4-((5-cyclopropyl-3-(3,5-dichloropyridin-4-yl)isoxazol-4-yl)methoxy)bicyclo[2.2.2]octan-1-yl)-1,2,4-oxadiazol-3-yl)-6-(dimethylamino)picolinic acid] showed an EC50 of 53 nM. The EC50 values of the last two compounds are within 1.5-fold of each other.

`O=C(O)c1cc(-c2noc(C34CCC(OCc5c(-c6c(Cl)cncc6Cl)noc5C5CC5)(CC3)CC4)n2)cc(OCC(F)(F)F)n1` [Example 263, 4-(5-(4-((5-cyclopropyl-3-(3,5-dichloropyridin-4-yl)isoxazol-4-yl)methoxy)bicyclo[2.2.2]octan-1-yl)-1,2,4-oxadiazol-3-yl)-6-(2,2,2-trifluoroethoxy)picolinic acid]: the 50% effective concentration (EC50) worked out at 95 nM.

The compound `O=C(O)c1cc(-c2noc(C34CCC(OCc5c(-c6c(Cl)cncc6Cl)noc5C5CC5)(CC3)CC4)n2)cc(C(F)(F)F)n1` [Example 264, 4-(5-(4-((5-cyclopropyl-3-(3,5-dichloropyridin-4-yl)isoxazol-4-yl)methoxy)bicyclo[2.2.2]octan-1-yl)-1,2,4-oxadiazol-3-yl)-6-(trifluoromethyl)picolinic acid] displayed an EC50 of 180 nM.

The compound `COc1cc(-c2noc(C34CCC(OCc5c(-c6c(Cl)cncc6Cl)noc5C5CC5)(CC3)CC4)n2)cnc1C(=O)O` [Example 265, 5-(5-(4-((5-cyclopropyl-3-(3,5-dichloropyridin-4-yl)isoxazol-4-yl)methoxy)bicyclo[2.2.2]octan-1-yl)-1,2,4-oxadiazol-3-yl)-3-methoxypicolinic acid] had a half-maximal effective concentration (EC50) of 1500 nM.

`O=C(O)C1CC1c1noc(C23CCC(OCc4c(-c5c(Cl)cccc5Cl)noc4C4CC4)(CC2)CC3)n1` (stereo not drawn) [Example 266, 2-(5-(4-((5-cyclopropyl-3-(2,6-dichlorophenyl)isoxazol-4-yl)methoxy)bicyclo[2.2.2]octan-1-yl)-1,2,4-oxadiazol-3-yl)cyclopropane-1-carboxylic acid] registered an EC50 of 720 nM.

Compound `Clc1cccc(Cl)c1-c1noc(C2CC2)c1COC12CCC(c3nc(-c4nn[nH]n4)no3)(CC1)CC2` [Example 267, 5-(4-((5-cyclopropyl-3-(2,6-dichlorophenyl)isoxazol-4-yl)methoxy)bicyclo[2.2.2]octan-1-yl)-3-(2H-tetrazol-5-yl)-1,2,4-oxadiazole] gave a half-maximal effective concentration (EC50) of 4400 nM. This EC50 is about 6.1-fold higher than that of the compound before.

Take `O=C(O)c1cn(CC23CCC(OCc4c(-c5c(Cl)cccc5Cl)noc4C4CC4)(CC2)CC3)nc1C(F)F` [Example 268, 1-((4-((5-cyclopropyl-3-(2,6-dichlorophenyl)isoxazol-4-yl)methoxy)bicyclo[2.2.2]octan-1-yl)methyl)-3-(difluoromethyl)-1H-pyrazole-4-carboxylic acid]: the EC50 was 460 nM.

As for `O=C(O)c1cnn(CC23CCC(OCc4c(-c5c(Cl)cccc5Cl)noc4C4CC4)(CC2)CC3)c1C(F)F` [Example 269, 1-((4-((5-cyclopropyl-3-(2,6-dichlorophenyl)isoxazol-4-yl)methoxy)bicyclo[2.2.2]octan-1-yl)methyl)-5-(difluoromethyl)-1H-pyrazole-4-carboxylic acid], the response was half-maximal at 700 nM (EC50). This EC50 lies about 1.5-fold higher than the previous one.

In turn, `O=C(O)C1CC1c1noc(C23CCC(OCc4c(-c5c(Cl)cncc5Cl)noc4C4CC4)(CC2)CC3)n1` (stereo not drawn) [Example 270, 2-(5-(4-((5-cyclopropyl-3-(3,5-dichloropyridin-4-yl)isoxazol-4-yl)methoxy)bicyclo[2.2.2]octan-1-yl)-1,2,4-oxadiazol-3-yl)cyclopropane-1-carboxylic acid] displayed an EC50 of 1500 nM.

On to `O=C(O)C1(c2noc(C34CCC(OCc5c(-c6c(Cl)cncc6Cl)noc5C5CC5)(CC3)CC4)n2)CC1` [Example 271, 1-(5-(4-((5-cyclopropyl-3-(3,5-dichloropyridin-4-yl)isoxazol-4-yl)methoxy)bicyclo[2.2.2]octan-1-yl)-1,2,4-oxadiazol-3-yl)cyclopropane-1-carboxylic acid], for which a half-maximal response (EC50) required 1100 nM.

The compound `O=C(O)C1CC1c1noc(CC23CCC(OCc4c(-c5c(Cl)cncc5Cl)noc4C4CC4)(CC2)CC3)n1` (stereo not drawn) [Example 272, 2-(5-((4-((5-cyclopropyl-3-(3,5-dichloropyridin-4-yl)isoxazol-4-yl)methoxy)bicyclo[2.2.2]octan-1-yl)methyl)-1,2,4-oxadiazol-3-yl)cyclopropane-1-carboxylic acid] yielded a 50% effective concentration (EC50) of 400 nM.

`COc1ccc(-c2noc(C34CCC(OCc5c(-c6c(Cl)cnn6C)noc5C5CC5)(CC3)CC4)n2)cc1C(=O)O` [Example 273, 5-(5-(4-((3-(4-chloro-1-methyl-1H-pyrazol-5-yl)-5-cyclopropylisoxazol-4-yl)methoxy)bicyclo[2.2.2]octan-1-yl)-1,2,4-oxadiazol-3-yl)-2-methoxybenzoic acid]: the midpoint of the response, the EC50, lay at 3300 nM.

The compound `CC(C)Oc1cc(-c2noc(C34CCC(OCc5c(-c6c(Cl)cnn6C)noc5C5CC5)(CC3)CC4)n2)cc(C(=O)O)n1` [Example 274, 4-(5-(4-((3-(4-chloro-1-methyl-1H-pyrazol-5-yl)-5-cyclopropylisoxazol-4-yl)methoxy)bicyclo[2.2.2]octan-1-yl)-1,2,4-oxadiazol-3-yl)-6-isopropoxypicolinic acid] displayed a concentration giving a half-maximal response (EC50) of 890 nM.

`COc1cc(-c2noc(C34CCC(OCc5c(-c6c(Cl)cnn6C)noc5C5CC5)(CC3)CC4)n2)cc(C(=O)O)n1` [Example 275, 4-(5-(4-((3-(4-chloro-1-methyl-1H-pyrazol-5-yl)-5-cyclopropylisoxazol-4-yl)methoxy)bicyclo[2.2.2]octan-1-yl)-1,2,4-oxadiazol-3-yl)-6-methoxypicolinic acid] showed a half-maximal effective concentration (EC50) of 2500 nM.

`O=C(O)c1ccc(OCC23CCC(OCc4c(-c5c(Cl)cncc5Cl)noc4C4CC4)(CC2)CC3)c(F)c1` [Example 276, 4-((4-((5-cyclopropyl-3-(3,5-dichloropyridin-4-yl)isoxazol-4-yl)methoxy)bicyclo[2.2.2]octan-1-yl)methoxy)-3-fluorobenzoic acid] registered an EC50 of 170 nM.

Compound `O=C(O)c1cc(OCC23CCC(OCc4c(-c5c(Cl)cncc5Cl)noc4C4CC4)(CC2)CC3)ccc1F` [Example 277] gave an EC50 of 47 nM.

In the case of `NC(=O)c1cnc(OCC23CCC(OCc4c(-c5c(Cl)cncc5Cl)noc4C4CC4)(CC2)CC3)c(C(F)(F)F)c1` [Example 278, 6-((4-((5-cyclopropyl-3-(3,5-dichloropyridin-4-yl)isoxazol-4-yl)methoxy)bicyclo[2.2.2]octan-1-yl)methoxy)-5-(trifluoromethyl)nicotinamide], the 50% effective concentration (EC50) turned out to be 620 nM.

In turn, `O=C(O)c1cnc(OCC23CCC(OCc4c(-c5c(Cl)cncc5Cl)noc4C4CC4)(CC2)CC3)c(C(F)(F)F)c1` [Example 279, 6-((4-((5-cyclopropyl-3-(3,5-dichloropyridin-4-yl)isoxazol-4-yl)methoxy)bicyclo[2.2.2]octan-1-yl)methoxy)-5-(trifluoromethyl)nicotinic acid] showed an EC50 of 190 nM.

`O=C(O)c1cc(C(F)(F)F)cc(OCC23CCC(OCc4c(-c5c(Cl)cncc5Cl)noc4C4CC4)(CC2)CC3)n1` [Example 280, 6-((4-((5-cyclopropyl-3-(3,5-dichloropyridin-4-yl)isoxazol-4-yl)methoxy)bicyclo[2.2.2]octan-1-yl)methoxy)-4-(trifluoromethyl)picolinic acid] yielded an EC50 of 23 nM.

Take `COc1cc(C(=O)O)nc2ccc(OCC34CCC(OCc5c(-c6c(Cl)cncc6Cl)noc5C5CC5)(CC3)CC4)cc12` [Example 282, 6-((4-((5-cyclopropyl-3-(3,5-dichloropyridin-4-yl)isoxazol-4-yl)methoxy)bicyclo[2.2.2]octan-1-yl)methoxy)-4-methoxyquinoline-2-carboxylic acid]: the EC50 was determined as 60 nM.

Take `O=C(O)c1cnc(OCC23CCC(OCc4c(-c5c(Cl)cncc5Cl)noc4C4CC4)(CC2)CC3)cc1C(F)(F)F` [Example 283]: the 50% effective concentration (EC50) was found to be 15 nM. This EC50 lies about 4-fold lower than the previous one.

`O=C(O)c1cc(OC(F)F)c2cc(OCC34CCC(OCc5c(-c6c(Cl)cncc6Cl)noc5C5CC5)(CC3)CC4)ccc2n1` [Example 284, 6-((4-((5-cyclopropyl-3-(3,5-dichloropyridin-4-yl)isoxazol-4-yl)methoxy)bicyclo[2.2.2]octan-1-yl)methoxy)-4-(difluoromethoxy)quinoline-2-carboxylic acid] displayed an EC50 of 8 nM.

Take `O=C(O)c1ncc(OCC23CCC(OCc4c(-c5c(Cl)cncc5Cl)noc4C4CC4)(CC2)CC3)cc1C(F)(F)F` [Example 285, 5-((4-((5-cyclopropyl-3-(3,5-dichloropyridin-4-yl)isoxazol-4-yl)methoxy)bicyclo[2.2.2]octan-1-yl)methoxy)-3-(trifluoromethyl)picolinic acid]: the EC50 amounted to 130 nM.

What is called EC50 is the concentration that produces a half-maximal response. High values mean lower potency in that assay, low ones higher potency in that assay.
